{
  "source": "patent US20090081174A1",
  "about": "(priority 2005, published 2009)",
  "tested_on": "Phytophthora infestans, strain resistant to phenylalanine",
  "conditions": "listed phosphite salt(s) alone at 750 ppm equivalent phosphorous acid, potato plants, scale 100 to 0",
  "data": [
    {"smiles": "O=[PH]([O-])[O-].[Cu+2]", "note": "[CuHPO3, copper (II) salt of phosphorous acid]", "values": [
      {"measurement": "Activity (y)", "result": 12}
    ]}
  ]
}
